Assay [1] deals with Transient receptor potential cation channel subfamily A member 1 (Homo sapiens) (UniProt O75762). Briefly: Antagonist activity at AITC induced human TRPA1 expressed in HEK293 cells assessed as intracellular calcium level at 10 to 100 uM preincubated for 30 mins followed by AITC stimulation and measured for 30 sec by Fluo-3AM staining based assay. The format is cell-based. Conditions: filed as antagonist, dose 10-100 µM, time 1830.0 sec. For orientation: Calcium assays in cells follow changes in intracellular calcium, usually with a dye or a luminescent sensor.

Assay [2] has the same target. Briefly: Agonist activity at human TRPA1. Conditions: filed as agonist.
Assay [3] relates to T47D. Briefly: Downregulation of TRPA1 protein expression in human T47D cells after 48 hrs. The format is functional, cell-based.
Assay [4] concerns T47D. Briefly: Inhibition of human T47D spheroid 3D culture growth size at 1 uM incubated for 120 hrs by CellIQ live-cell analysis. The class given is functional.
For assay [5], the system named is T47D. Briefly: Inhibition of human T47D spheroid 3D culture growth size at 10 uM incubated for 120 hrs by CellIQ live-cell analysis. The format is functional.
In assay [6] the test system is T47D. Nature of the assay: Inhibition of human T47D spheroid 3D culture growth size at 10 to 100 uM incubated for 12 hrs by CellIQ live-cell analysis. The class given is functional, cell-based. To be noted: dose 10-100 µM.
For assay [7], the system named is T47D. Nature of the assay: Inhibition of human T47D spheroid 3D culture growth size at 10 uM incubated for 5 days by CellIQ live-cell analysis. The format is functional. Conditions: 120 h, time 5 day.
Assay [8] has as its system T47D. Nature of the assay: Inhibition of human T47D spheroid 3D culture growth size at 100 uM incubated for 5 days by CellIQ live-cell analysis. The class given is functional. Conditions: 120 h, time 5 day.

Molecules are shown by their SMILES. Activity calls are given as the source filed them. The calls are words filed in the database; no cut-off is given here.

Sequence of Transient receptor potential cation channel subfamily A member 1 (Homo sapiens) (O75762 whole entry): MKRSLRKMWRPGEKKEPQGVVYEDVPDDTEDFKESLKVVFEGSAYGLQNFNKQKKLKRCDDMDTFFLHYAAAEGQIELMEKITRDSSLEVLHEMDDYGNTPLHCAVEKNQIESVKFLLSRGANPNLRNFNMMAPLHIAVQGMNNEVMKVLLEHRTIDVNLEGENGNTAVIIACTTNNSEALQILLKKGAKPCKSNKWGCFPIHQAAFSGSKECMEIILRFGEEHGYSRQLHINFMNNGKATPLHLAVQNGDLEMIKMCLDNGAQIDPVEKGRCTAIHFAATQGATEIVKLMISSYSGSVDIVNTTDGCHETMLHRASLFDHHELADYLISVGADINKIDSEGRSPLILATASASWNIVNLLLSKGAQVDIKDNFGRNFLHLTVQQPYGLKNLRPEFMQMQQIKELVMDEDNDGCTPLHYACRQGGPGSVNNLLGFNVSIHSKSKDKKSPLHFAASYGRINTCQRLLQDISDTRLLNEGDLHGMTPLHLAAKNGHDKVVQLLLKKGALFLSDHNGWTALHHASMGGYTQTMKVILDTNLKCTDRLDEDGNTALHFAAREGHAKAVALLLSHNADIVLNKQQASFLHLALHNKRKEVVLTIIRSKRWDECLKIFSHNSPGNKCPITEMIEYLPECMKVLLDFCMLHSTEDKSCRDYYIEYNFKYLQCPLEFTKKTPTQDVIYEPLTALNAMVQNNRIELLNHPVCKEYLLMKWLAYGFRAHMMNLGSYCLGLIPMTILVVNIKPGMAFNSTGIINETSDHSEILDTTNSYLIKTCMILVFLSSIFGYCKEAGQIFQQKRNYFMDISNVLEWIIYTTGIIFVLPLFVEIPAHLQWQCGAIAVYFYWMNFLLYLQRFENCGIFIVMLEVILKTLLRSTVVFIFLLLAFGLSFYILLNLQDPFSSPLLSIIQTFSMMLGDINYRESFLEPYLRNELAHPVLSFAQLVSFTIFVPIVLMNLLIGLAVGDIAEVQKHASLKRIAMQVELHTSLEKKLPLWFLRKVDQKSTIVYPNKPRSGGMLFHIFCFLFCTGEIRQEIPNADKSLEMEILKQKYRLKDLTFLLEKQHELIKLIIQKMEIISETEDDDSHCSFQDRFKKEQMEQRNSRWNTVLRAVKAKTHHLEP

As for `O=c1oc2cc(O)ccc2cc1-c1cccc(O)c1`, the result (in assay [1]; in assay [2]; with T47D [3]) was Active.
As for `O=c1oc2ccccc2cc1-c1cccc(O)c1`, the result (in assay [2]; with T47D [3]) was Active.
Regarding `O=c1oc2ccccc2cc1-c1ccc(O)cc1`, the outcome in assay [1] was Active.
On to `CC(=O)Oc1ccc2cc(-c3ccccc3)c(=O)oc2c1`, for which the outcome in assay [1] was Active. Further, in the assay on T47D [3], the result was inactive.
As a reminder, the inhibition is how much of the control response was suppressed. As for `CC(=O)Oc1ccc2cc(-c3cccc(Br)c3)c(=O)oc2c1`, in assay [1], the result was Active. For the same molecule, the outcome with T47D [3] was inactive. In the assay on T47D [4], this molecule registered an inhibition at 1 µM of 20%. The inhibition at 10 µM is 60% in the assay on T47D [5] and 8% with T47D [7]. Also, in the assay with T47D [6], the inhibition result was “Active”. Also, 100 µM produced 18% inhibition in the assay with T47D [8].
As to `Oc1ccc(/C=C/c2cc(O)cc(O)c2)cc1`, the outcome in the assay with T47D [3] was Active.

For the origin of these results see ChEMBL document CHEMBL5579866, “TRPA1 Inhibition Effects by 3-Phenylcoumarin Derivatives” (2024).
